The values that follow come from patent publication US8044211B2 (Chroma Therapeutics Ltd., priority 2006, dated 2011).

T1 sequence (Q16539 whole entry): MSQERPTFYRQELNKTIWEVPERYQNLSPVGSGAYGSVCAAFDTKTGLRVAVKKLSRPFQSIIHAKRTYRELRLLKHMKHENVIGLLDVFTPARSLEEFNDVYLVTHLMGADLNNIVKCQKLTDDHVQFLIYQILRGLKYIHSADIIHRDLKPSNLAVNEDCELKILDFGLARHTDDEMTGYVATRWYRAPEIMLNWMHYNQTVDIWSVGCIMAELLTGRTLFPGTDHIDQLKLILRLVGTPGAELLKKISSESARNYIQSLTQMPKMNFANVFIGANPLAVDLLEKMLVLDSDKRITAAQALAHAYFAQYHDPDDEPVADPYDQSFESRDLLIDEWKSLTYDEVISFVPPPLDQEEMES

This test addresses T1, p38 MAP Kinase a (Homo sapiens, UniProt Q16539).
T1 construct: purchased Upstate (Dundee UK)
Kind of test: p38 MAP Kinase activity, radiometric filter-binding assay (Upstate). It counts as biochemical. Particulars: IC50 range; ATP at or close to Km; read-out: Inhibitor activity versus p38 MAPKa. As for the experimental part:
The ability of compounds to inhibit p38 MAP a Kinase activity was measured in an assay performed by Upstate (Dundee UK). In a final reaction volume of 25 μL, p38 MAP Kinase a (5-10 mU) is incubated with 25 mM Tris pH 7.5, 0.002 mMEGTA, 0.33 mg/mL myelin basic protein, 10 mM MgAcetate and [g-33P-ATP] (specific activity approx. 500 cpm/pmol, concentration as required). The reaction is initiated by the addition of the MgATP mix. After incubation for 40 minutes at room temperature, the reaction is stopped by the addition of 5 μL of a 3% phosphoric acid solution. 10 μL of the reaction is then spotted onto a P30 filtermat and washed three times for 5 minutes in 75 mM phosphoric acid and once in methanol prior to drying and scintillation counting.
Duplicate data points are generated from a ⅓ log dilution series of a stock solution in DMSO. Nine dilutions steps are made from a top concentration of 10 μM, and a ‘no compound’ blank is included. The standard radiometric filter-binding assay is performed at an ATP concentration at, or close to, the Km. Data from scintillation counts are collected and subjected to free-fit analysis by Prism software. From the curve generated, the concentration giving 50% inhibition is determined and reported.
In the case of `Cc1cc(C(=O)c2ccc(=O)n(-c3ccc(CN[C@@H](Cc4ccccc4)C(=O)O)cc3)c2N)ccc1F` [Example 80, (S)-2-{4-[6-Amino-5-(3-methyl-4-fluorobenzoyl)-2-oxo-2H-pyridin-1-yl]benzylamino}-3-phenylpropionic acid], the IC50 is < 100 nM. On to `Cc1cc(C(=O)c2ccc(=O)n(-c3ccc(CN[C@H](C(=O)O)c4ccccc4)cc3)c2N)ccc1F` [Example 76, (S)-{4-[6-Amino-5-(3-methyl-4-fluorobenzoyl)-2-oxo-2H-pyridin-1-yl]benzylamino}phenylacetic acid], for which the IC50 fell in the range of 100 to 1000 nM. On to `Nc1c(C(=O)c2ccc(F)cc2)ccc(=O)n1-c1ccc(CN[C@H](C(=O)O)c2ccccc2)cc1` [Example 75, (S)-{4-[6-Amino-5-(4-fluorobenzoyl)-2-oxo-2H-pyridin-1-yl]benzylamino}phenylacetic acid], for which the IC50 was in the range of 100 to 1000 nM. To `Cc1cc(C(=O)c2ccc(=O)n(-c3ccc(OCCCN[C@@H](Cc4ccccc4)C(=O)O)cc3)c2N)ccc1F` [Example 83, (S)-2-(3-{4-[6-Amino-5-(3-methyl-4-fluorobenzoyl)-2-oxo-2H-pyridin-1-yl]phenoxy}propylamino)-3-phenyl propionic acid] belongs < 100 nM.

Turning to `Cc1cc(C(=O)c2ccc(=O)n(-c3c(F)cc(OCCCN[C@@H](CC(C)C)C(=O)O)cc3F)c2N)ccc1F` [Example 98, (S)-2-(3-{4-[6-Amino-5-(4-fluoro-3-methylbenzoyl)-2-oxo-2H-pyridin-1-yl]-3,5-difluorophenoxy}propylamino)-4-methylpentanoic acid], the IC50 is < 100 nM. Consider `CC(C)C[C@H](NCc1ccc(-n2c(N)c(C(=O)c3ccc(F)cc3F)ccc2=O)cc1)C(=O)O` [Example 74, (S)-2-{4-[6-Amino-5-(2,4-difluorobenzoyl)-2-oxo-2H-pyridin-1-yl]benzylamino}-4-methylpentanoic acid], for which the IC50 was < 100 nM. For `CC(C)C[C@H](NCc1ccc(-n2c(N)c(C(=O)c3ccc(F)cc3)ccc2=O)cc1)C(=O)O` [Example 79, (S)-2-{4-[6-Amino-5-(4-fluorobenzoyl)-2-oxo-2H-pyridin-1-yl]benzylamino}-4-methylpentanoic acid], the IC50 was in the range of 100 to 1000 nM. `CC(C)C[C@H](NCc1cc(F)c(-n2c(N)c(C(=O)c3ccc(F)cc3F)ccc2=O)c(F)c1)C(=O)O` [Example 101]: the IC50 is < 100 nM. Turning to `Cc1cc(C(=O)c2ccc(=O)n(-c3c(F)cc(OCCCN[C@@H](Cc4ccccc4)C(=O)O)cc3F)c2N)ccc1F` [Example 93, (S)-2-(3-{4-[6-Amino-5-(4-fluoro-3-methylbenzoyl)-2-oxo-2H-pyridin-1-yl]-3,5-difluorophenoxy}propylamino)-3-phenylpropionic acid], the IC50 is < 100 nM. As for `CC(C)C[C@H](NCCCCCOc1cc(F)c(-n2c(N)c(C(=O)c3ccc(F)cc3)ccc2=O)c(F)c1)C(=O)O` [Example 109, N-(5-{4-[6-amino-5-(4-fluorobenzoyl)-2-oxopyridin-1(2H)-yl]-3,5-difluorophenoxy}pentyl)-L-leucine], the IC50 was < 100 nM. To `Nc1c(C(=O)c2ccc(F)cc2)ccc(=O)n1-c1c(F)cc(OCCCN[C@H](C(=O)O)c2ccccc2)cc1F` [Example 89] belongs < 100 nM; to `Nc1c(C(=O)c2ccc(F)cc2F)ccc(=O)n1-c1c(F)cc(OCCCN[C@@H](C(=O)O)c2ccccc2)cc1F` [Example 106, (R)-(3-{4-[6-Amino-5-(2,4-difluorobenzoyl)-2-oxo-2H-pyridin-1-yl]-3,5-difluorophenoxy}propylamino)phenyl acetic acid], < 100 nM; to `CC(C)C[C@H](NC1CCC(Oc2cc(F)c(-n3c(N)c(C(=O)c4ccc(F)cc4)ccc3=O)c(F)c2)CC1)C(=O)O` (stereo partly drawn) [Example 104, N-(4-{4-[6-amino-5-(4-fluorobenzoyl)-2-oxopyridin-1(2H)-yl]-3,5-difluorophenoxy}cyclohexyl)-L-leucine], < 100 nM.

`Nc1c(C(=O)c2ccc(F)cc2)ccc(=O)n1-c1ccc(CCN[C@H](C(=O)O)c2ccccc2)cc1` [Example 118]: the IC50 is < 100 nM.
